According to US9233983B2, “Substituted hetero-bicyclic compounds, compositions and medicinal applications thereof” (ADVINUS THERAPEUTICS LIMITED, priority 2012, dated 2016):

Legend:
mouse splenocytes = test: Inhibition of B Cell Activation as Measured by CD69 Expression in Mouse Splenocytes; assay type: cell-based; conditions: Splenocyte; C57/BL6 splenocytes, 3 ug/mL goat anti-mouse IgM, 18-20 hrs, CD69+ve cells within CD19; read-out: Mouse spleenocyte IC50
Procedure: Inhibition of B Cell Activation as Measured by CD69 Expression in Mouse Splenocytes:
To test the effect of BTK inhibitors in suppressing B-cell receptor (BCR) mediated activation of B cells, we developed a flow cytometry based assay to analyze CD69 expression in B cell population among total splenocyte from the mouse. […] Finally, cell were cultured in RPMI medium with 10% FBS.
Test compounds were diluted half log starting from 2 mM in 100% DMSO (200×). 1×10^5 splenocytes were incubated with 1 uL of diluted test compounds in 200 uL culture medium in a U-bottom 96 well plate (Greiner) at 37° C. with 5% CO2 for 30 mins. Control wells received 1 uL of 100% DMSO without any compound. The cells were stimulated with 3 ug/mL goat anti-mouse IgM (Sigma, cat#M8644) and incubated for 18-20 hrs. […] Then the cells were washed 3 times with PBS with 1% FBS and analyzed by Guava Easycyte Mini flow cytometer system (Millipore). Flow cytometry data were analyzed using Weasel software (WEHI, Melbourne). First B cells were gated using CD19 markers. Then expression of CD69 was analyzed as percentage of CD69+ve cells within CD19. Percent activity for each data point was calculated using following formula: […]
Percentage activity was fit using sigmoid dose response with variable slope logistic equation in Graph-pad Prism 5 software to determine inhibition constant 50 (IC50).

[1] = biological target: human Bruton's Tyrosine Kinase (Btk) (Homo sapiens (Human), UniProt Q06187); test: Recombinant Human Bruton's Tyrosine Kinase (Btk) Inhibition Assay (HTRF KinEASE-TK); assay type: biochemical; conditions: 20 ng/ml rhBtk, 77 μM ATP (KM), 1 μM TK-Biotin substrate, 90 min; read-out: hBTK IC50
Chain of human Bruton's Tyrosine Kinase (Btk) (Q06187 whole entry): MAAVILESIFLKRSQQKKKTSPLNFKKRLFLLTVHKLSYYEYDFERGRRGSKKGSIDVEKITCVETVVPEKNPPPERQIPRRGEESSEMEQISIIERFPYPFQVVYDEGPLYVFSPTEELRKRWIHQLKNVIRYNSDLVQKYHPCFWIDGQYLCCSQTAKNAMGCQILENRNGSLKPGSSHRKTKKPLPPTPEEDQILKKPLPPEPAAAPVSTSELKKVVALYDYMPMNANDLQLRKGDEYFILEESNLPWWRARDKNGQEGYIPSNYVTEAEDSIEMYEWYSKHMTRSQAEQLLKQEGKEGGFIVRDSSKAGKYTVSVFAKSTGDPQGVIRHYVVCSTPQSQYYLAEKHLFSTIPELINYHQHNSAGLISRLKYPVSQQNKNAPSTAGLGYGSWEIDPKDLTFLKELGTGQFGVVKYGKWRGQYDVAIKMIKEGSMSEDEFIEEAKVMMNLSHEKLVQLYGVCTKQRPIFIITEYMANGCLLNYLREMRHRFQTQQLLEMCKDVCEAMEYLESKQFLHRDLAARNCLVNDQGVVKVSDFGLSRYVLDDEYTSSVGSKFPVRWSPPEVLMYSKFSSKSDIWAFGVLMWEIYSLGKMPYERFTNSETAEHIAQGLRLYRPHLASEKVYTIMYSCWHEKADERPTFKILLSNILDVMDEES

| IC50 (mouse splenocytes) | IC50 [1] | SMILES |
| --- | --- | --- |
| 67 nM | 7 nM | CN1CCN(Cc2ccc(-c3cc4c(-c5cccc(N6CCOc7cc(C8CC8)ccc7C6=O)c5CO)ccnc4[nH]3)cn2)CC1 [Example B-20, 8-cyclopropyl-4-[2-(hydroxymethyl)-3-[2-[6-[(4-methylpiperazin-1-yl)methyl]-3-pyridyl]-1H-pyrrolo[2,3-b]pyridin-4-yl]phenyl]-2,3-dihydro-1,4-benzoxazepin-5-one] |
| 137 nM | 32.5 nM | Cc1c(-c2ncnc3[nH]c(-c4ccc(CN5CCC(O)CC5)cc4)cc23)cccc1N1CCc2cc(C3CC3)ccc2C1=O [Example B-22, 6-cyclopropyl-2-[3-[6-[4-[(4-hydroxy-1-piperidyl)methyl]phenyl]-7H-pyrrolo[2,3-d]pyrimidin-4-yl]-2-methyl-phenyl]-3,4-dihydroisoquinolin-1-one] |
| 9 nM | 5 nM | CN1CCN(c2ccc(-c3cc4c(-c5cccc(-n6ccc7cc(C8CC8)ccc7c6=O)c5CO)ncnc4[nH]3)cc2)CC1 [Example C-1, 6-cyclopropyl-2-[2-(hydroxymethyl)-3-[6-[4-(4-methylpiperazin-1-yl)phenyl]-7H-pyrrolo[2,3-d]pyrimidin-4-yl]phenyl]isoquinolin-1-one] |
| 36 nM | 12 nM | CN1CCN(c2ccc(-c3cc4c(-c5cccc(N6CCOc7cc(C8CC8)ccc7C6=O)c5CO)ncnc4[nH]3)cc2)CC1 [Example C-2, 8-cyclopropyl-4-[2-(hydroxymethyl)-3-[6-[4-(4-methylpiperazin-1-yl)phenyl]-7H-pyrrolo[2,3-d]pyrimidin-4-yl]phenyl]-2,3-dihydro-1,4-benzoxazepin-5-one] |
| 175 nM | 21 nM | Cc1c(-c2ncnc3[nH]c(-c4ccc(N5CCN(C)CC5)cc4)cc23)cccc1N1CCOc2cc(C3CC3)ccc2C1=O [Example C-3, 8-cyclopropyl-4-[2-methyl-3-[6-[4-(4-methylpiperazin-1-yl)phenyl]-7H-pyrrolo[2,3-d]pyrimidin-4-yl]phenyl]-2,3-dihydro-1,4-benzoxazepin-5-one] |
| 125 nM | 3 nM | CN1CCOC(c2ccc(-c3cc4c(-c5cccc(N6CCOc7cc(C8CC8)ccc7C6=O)c5CO)ccnc4[nH]3)cc2)C1 (stereo not drawn) [Example C-5, 8-cyclopropyl-4-[2-(hydroxymethyl)-3-[2-[4-(4-methylmorpholin-2-yl)phenyl]-1H-pyrrolo[2,3-b]pyridin-4-yl]phenyl]-2,3-dihydro-1,4-benzoxazepin-5-one] |
| 32 nM | 6 nM | CN1CCC(n2cc(-c3cc4c(-c5cccc(N6CCOc7cc(C8CC8)ccc7C6=O)c5CO)ncnc4[nH]3)cn2)CC1 [Example D-1, 8-cyclopropyl-4-[2-(hydroxymethyl)-3-[6-[1-(1-methyl-4-piperidyl)pyrazol-4-yl]-7H-pyrrolo[2,3-d]pyrimidin-4-yl]phenyl]-2,3-dihydro-1,4-benzoxazepin-5-one] |
| 43 nM | 5 nM | CN1CCC(n2cc(-c3cc4c(-c5cccc(-n6ccc7cc(C8CC8)ccc7c6=O)c5CO)ncnc4[nH]3)cn2)CC1 [Example D-3, 6-cyclopropyl-2-[2-(hydroxymethyl)-3-[6-[1-(1-methyl-4-piperidyl)pyrazol-4-yl]-7H-pyrrolo[2,3-d]pyrimidin-4-yl]phenyl]isoquinolin-1-one] |
| 19 nM | 3 nM | CN1CCC(c2ccc(-c3cc4c(-c5cccc(-n6ccc7cc(C8CC8)ccc7c6=O)c5CO)ncnc4[nH]3)cc2)CC1 [Example D-4, 6-cyclopropyl-2-[2-(hydroxymethyl)-3-[6-[4-(1-methyl-4-piperidyl)phenyl]-7H-pyrrolo[2,3-d]pyrimidin-4-yl]phenyl]isoquinolin-1-one] |
| 38 nM | 5 nM | CN1CCC(n2cc(-c3cc4c(-c5cccc(N6CCOc7cc(C8CC8)ccc7C6=O)c5CO)ccnc4[nH]3)cn2)CC1 [Example D-5, 8-cyclopropyl-4-[2-(hydroxymethyl)-3-[2-[1-(1-methyl-4-piperidyl)pyrazol-4-yl]-1H-pyrrolo[2,3-b]pyridin-4-yl]phenyl]-2,3-dihydro-1,4-benzoxazepin-5-one] |
| 53 nM | 5 nM | CN1CCCC(n2cc(-c3cc4c(-c5cccc(N6CCOc7cc(C8CC8)ccc7C6=O)c5CO)ncnc4[nH]3)cn2)C1 [Example D-6, 8-cyclopropyl-4-[2-(hydroxymethyl)-3-[6-[1-(1-methyl-3-piperidyl)pyrazol-4-yl]-7H-pyrrolo[2,3-d]pyrimidin-4-yl]phenyl]-2,3-dihydro-1,4-benzoxazepin-5-one] |
| 43 nM | 4 nM | CN1CC(n2cc(-c3cc4c(-c5cccc(N6CCOc7cc(C8CC8)ccc7C6=O)c5CO)ccnc4[nH]3)cn2)C1 [Example D-7, 8-cyclopropyl-4-[2-(hydroxymethyl)-3-[2-[1-(1-methylazetidin-3-yl)pyrazol-4-yl]-1H-pyrrolo[2,3-b]pyridin-4-yl]phenyl]-2,3-dihydro-1,4-benzoxazepin-5-one] |
| 97 nM | 6.5 nM | CC(C)N1CC(n2cc(-c3cc4c(-c5cccc(N6CCOc7cc(C8CC8)ccc7C6=O)c5CO)ccnc4[nH]3)cn2)C1 [Example D-8, 8-cyclopropyl-4-[2-(hydroxymethyl)-3-[2-[1-(1-isopropylazetidin-3-yl)pyrazol-4-yl]-1H-pyrrolo[2,3-b]pyridin-4-yl]phenyl]-2,3-dihydro-1,4-benzoxazepin-5-one] |
| 33 nM | 2 nM | CN1CCC(n2cc(-c3cc4c(-c5cccc(-n6ncc7cc(C8CC8)ccc7c6=O)c5CO)ncnc4[nH]3)cn2)CC1 [Example D-9] |
| 80 nM | 14 nM | CN1CCN(c2ccc(-c3cc4c(-c5cccc(N6CCOc7cc(C8CC8)ccc7C6=O)c5CO)ccnc4[nH]3)cn2)CC1 [Example D-11, 8-cyclopropyl-4-[2-(hydroxymethyl)-3-[2-[6-(4-methylpiperazin-1-yl)-3-pyridyl]-1H-pyrrolo[2,3-b]pyridin-4-yl]phenyl]-2,3-dihydro-1,4-benzoxazepin-5-one] |
| 261 nM | 11 nM | CC(C)N1CC(Oc2ccc(-c3cc4c(-c5cccc(N6CCOc7cc(C8CC8)ccc7C6=O)c5CO)ccnc4[nH]3)cn2)C1 [Example D-12, 8-cyclopropyl-4-[2-(hydroxymethyl)-3-[2-[6-(1-isopropylazetidin-3-yl)oxy-3-pyridyl]-1H-pyrrolo[2,3-b]pyridin-4-yl]phenyl]-2,3-dihydro-1,4-benzoxazepin-5-one] |
| 65 nM | 3 nM | CCN1CCC(n2cc(-c3cc4c(-c5cccc(-n6ncc7cc(C8CC8)ccc7c6=O)c5CO)ncnc4[nH]3)cn2)CC1 [Example D-13, 6-cyclopropyl-2-[3-[6-[1-(1-ethyl-4-piperidyl)pyrazol-4-yl]-7H-pyrrolo[2,3-d]pyrimidin-4-yl]-2-(hydroxymethyl)phenyl]phthalazin-1-one] |
| 8 nM | 1.7 nM | O=C1c2c(F)cc(C3CC3)cc2OCCN1c1cccc(-c2ccnc3[nH]c(-c4cnn(C5CCN(C6COC6)CC5)c4)cc23)c1CO [Example D-14, 8-cyclopropyl-6-fluoro-4-[2-(hydroxymethyl)-3-[2-[1-[1-(oxetan-3-yl)-4-piperidyl]pyrazol-4-yl]-1H-pyrrolo[2,3-b]pyridin-4-yl]phenyl]-2,3-dihydro-1,4-benzoxazepin-5-one] |
